Consider 2 compounds from patent publication US6399625B1, “1-oxorapamycins” (Wyeth, priority 2000, dated 2002).

Type in all cases: cell-based
Test [1] deals with SH-SY5Y cells. The experiment in a line: Neuroregeneration activity, neurite outgrowth. The conditions noted are these: aphidicolin pretreated, NGF alone (control), mean ± SEM. An excerpt: The neuroregeneration activity for the compounds of this invention was confirmed in a standard pharmacological test procedure by evaluating 1-oxo-rapamycin (Compound I) as representative compound of this invention, against SH-SY5Y cells in vitro [Gold et al., Exp Neurol 147: 269-278, 1997]. Briefly, SH-SY5Y cells were placed in 6-well plate treated with aphidicolin for 5 days followed by the test compounds using 6-well plates. For controls, wells were untreated, or treated with nerve growth factor (NGF) alone. Test wells were treated with NGF plus compound I or rapamycin. Cells were photographed at 168 hours. Analysis of neuritic lengths was performed on photographic prints using a Houston Instrument HI-PAD digitizing tablet connected to an IBM XT computer with appropriate software (Bioquant IV, R&M Biometrics, Nashville, Tenn.). Mean values for axonal areas were compared using by ANOVA (STATVIEW, Abacus Concepts, Inc., Berkeley, Calif. The following table summarizes the results that were obtained.

Test [2] deals with A. fumigatus GC 3092. The experiment in a line: Antifungal activity, microtiter broth dilution MIC. The conditions noted are these: A. fumigatus GC 3092; RPMI 1640, 35° C., 24-48 hours. Here is the method:
(§1) The antifungal activity for the 1-oxorapamycins of this invention was confirmed in a standard pharmacological test procedure which measured the ability of the compound being evaluated to inhibit fungal growth. 1-Oxorapamycin (Compound I), 1-oxorapamycin 42-ester with 3-hydroxy-2-(hydroxymethyl)-2-methylpropionic acid (Compound II), and 42-O-(2-hydroxy)ethyl 1-oxorapamycin (Compound III) were evaluated as representative compounds of this invention. The procedure used and results obtained are briefly described below. A 96 U-bottom microtiter plate was filled (50 μl/well) with RPMI 1640. The compounds to be evaluated were placed in appropriate wells, and serial diluted in successive wells to provide 11 dilutions. The concentrations ranged from 64 through 0.06 μg/ml. An adjusted inoculum of fungi (50 μl) was added to each well and the plates were incubated at 35° C. for 24-48 hours. […] Nystatin and rapamycin were used for the purpose of comparison.
A general note: In broth dilution the organism is exposed to a series of concentrations in liquid medium.

Test [3] concerns A. niger GC 3091. The experiment in a line: Antifungal activity, microtiter broth dilution MIC. The conditions noted are these: RPMI 1640, 35° C., 24-48 hours. On the procedure: as §1
In test [4] the test system is A. niger GC 6591. The experiment in a line: Antifungal activity, microtiter broth dilution MIC. The conditions noted are these: RPMI 1640, 35° C., 24-48 hours. Here is the method: as §1
For test [5], the system named is C. albicans GC 3064. The experiment in a line: Antifungal activity, microtiter broth dilution MIC. The conditions noted are these: RPMI 1640, 35° C., 24-48 hours. On the procedure: as §1
For test [6], the system named is C. albicans GC 3065. The experiment in a line: Antifungal activity, microtiter broth dilution MIC. The conditions noted are these: RPMI 1640, 35° C., 24-48 hours. On the procedure:
as §1

The subject of test [7] is C. albicans GC 3066. The experiment in a line: Antifungal activity, microtiter broth dilution MIC. The conditions noted are these: RPMI 1640, 35° C., 24-48 hours. Here is the method:
as §1

Test [8] concerns C. krussii GC 3067. The experiment in a line: Antifungal activity, microtiter broth dilution MIC. The conditions noted are these: RPMI 1640, 35° C., 24-48 hours. On the procedure: as §1
For test [9], the system named is C. lusitaniae GC 3068. The experiment in a line: Antifungal activity, microtiter broth dilution MIC. The conditions noted are these: RPMI 1640, 35° C., 24-48 hours. Here is the method:
as §1

Test [10] concerns C. parapsilosis GC 3074. The experiment in a line: Antifungal activity, microtiter broth dilution MIC. The conditions noted are these: RPMI 1640, 35° C., 24-48 hours. Here is the method: as §1
The subject of test [11] is C. parapsilosis GC 3075. The experiment in a line: Antifungal activity, microtiter broth dilution MIC. The conditions noted are these: RPMI 1640, 35° C., 24-48 hours. Here is the method:
as §1

In test [12] the test system is C. parapsilosis GC 3076. The experiment in a line: Antifungal activity, microtiter broth dilution MIC. The conditions noted are these: RPMI 1640, 35° C., 24-48 hours. On the procedure: as §1
Test [13] has as its system C. pseudotropicalis 3070. The experiment in a line: Antifungal activity, microtiter broth dilution MIC. The conditions noted are these: RPMI 1640, 35° C., 24-48 hours. Here is the method:
as §1

Test [14] deals with C. tropicalis GC 3080. The experiment in a line: Antifungal activity, microtiter broth dilution MIC. The conditions noted are these: RPMI 1640, 35° C., 24-48 hours. Here is the method: as §1
Test [15] deals with C. tropicalis GC 3081. The experiment in a line: Antifungal activity, microtiter broth dilution MIC. The conditions noted are these: RPMI 1640, 35° C., 24-48 hours. Here is the method:
as §1

The test system of test [16] is 3T3 (ovarian) tumor cell line. The experiment in a line: Antineoplastic activity, tumor cell growth inhibition (sulforhodamine B). The conditions noted are these: 3T3 cells, 48 hours. An excerpt:
(§2) Antineoplastic activity for the compounds of this invention was confirmed by evaluating the antineoplastic activity of representative compounds of this invention (Compounds I-III) against six tumor cell lines in vitro. Briefly, tumor cells from six cell lines were placed in wells of a 96 well microtiter plate. The following tumor cell lines were used: 3T3 (ovarian), 3T3/H2N (ovarian—resistant to cis-platin), A431 (vulva epidermoid origin), SW620 (colon), SKBR3 (breast), and MDA-435 (breast). The tumors cells were grown in the presence of serial dilutions of the compound to be evaluated for 48 hours, and cell growth determined using a colorimetric procedure (sulforhrodamine B). The inhibition of growth was calculated compared to the number of cells at the time of test compound addition. Results are expressed as an IC50 (μg/ml); N/A indicates the compound was not evaluated against that cell line. The following IC50s was listed on Table 2.

Test [17] deals with 3T3/H2N (ovarian—resistant to cis-platin) tumor cell line. Described as above. The conditions noted are these: 3T3/H2N cells, 48 hours.
Source text: as §2

Test [18] has as its system A431 (vulva epidermoid origin) tumor cell line. Described as above. The conditions noted are these: A431 cells, 48 hours.
Source text: as §2

Test [19] relates to MDA-435 (breast) tumor cell line. The description is as above. The conditions noted are these: MDA435 cells, 48 hours.
Source text: as §2

The test system of test [20] is SKBR3 (breast) tumor cell line. The test is described as above. The conditions noted are these: SKBR3 cells, 48 hours.
Source text: as §2

Test [21] has as its system SW620 (colon) tumor cell line. The test is described as above. The conditions noted are these: SW620 cells, 48 hours.
Source text: as §2

For “NGF: nerve growth factor (NGF), control treatment alone and co-treatment in neurite test”, the “Mean Neurite Lengths after 168 h, Neurite Length” value in test [1] is on record as 196.5 ± 7.7 μm.

As to `CO[C@H]1CC2CC[C@@H](C)[C@@](O)(O2)C(=O)C(=O)N2CCCC[C@H]2C(=O)O[C@H]([C@H](C)CC2CC[C@@H](OC(=O)C(C)(CO)CO)[C@H](OC)C2)CC(=O)[C@H](C)/C=C(\C)[C@@H](O)[C@@H](OC)C(=O)[C@H](C)C[C@H](C)C(=O)C/C=C/C=C/1C` (stereo partly shown) [Compound II, 1-Oxorapamycin 42-ester with 3-Hydroxy-2-(hydroxymethyl)-2-methylpropionic acid], the “ANTIFUNGAL ACTIVITY (MIC)” value in [2] was found to be 64 µg/mL; in test [3] it was 32 µg/mL; in test [4], 64 µg/mL; in [5], 8 µg/mL; in test [6] it was 2 µg/mL; in [7], 2 µg/mL. The “ANTIFUNGAL ACTIVITY (MIC)” value in test [8] stood at 16 µg/mL; in test [9] (C. lusitaniae GC 3068, first listing (r26)), 1 µg/mL; in test [9] (C. lusitaniae GC 3068, second listing (r28)), 1 µg/mL; in [10], 2 µg/mL; in test [11], 2 µg/mL; in [12] it was 1 µg/mL. Further, the “ANTIFUNGAL ACTIVITY (MIC)” value in test [13] came to 0.50 µg/mL; in [14], 1 µg/mL; in test [15] it was 0.50 µg/mL. Besides, the “Antineoplastic Activity (IC50)” value in test [16] stood at 0.84 µg/mL; in test [17], 3.0 µg/mL; in test [18] it was 5.5 µg/mL; in [19], 2.8 µg/mL; in test [20], 1.7 µg/mL; in [21] it was 8.7 µg/mL.
